Measurements reported in the supplement of paper PMC8967900.

Tests used:
Experiment in all cases: selective drug sensitivity score (sDSS, relative to normal bone marrow) (sDSS (score)); higher = more potent and effective on the cell line relative to normal bone marrow cells
Details in all cases: 72 h
697 = test system: 697
ALL-SIL = test system: ALL-SIL
CCRF-CEM = test system: CCRF-CEM
CCRF-HSB2 = test system: CCRF-HSB2
COG-LL-319h = test system: COG-LL-319h
COG-LL-355h = test system: COG-LL-355h
JURKAT = test system: JURKAT
KARPAS-45 = test system: KARPAS-45
KASUMI-2 = test system: KASUMI-2
KOPN-8 = test system: KOPN-8
MHH-CALL-4 = test system: MHH-CALL-4
MN-60 = test system: MN-60
MOLT-14 = test system: MOLT-14
NALL-1 = test system: NALL-1
NALM-6 = test system: NALM-6
P12-ICHIKAWA = test system: P12-ICHIKAWA
PF-382 = test system: PF-382
RCH-ACV = test system: RCH-ACV
REH = test system: REH
SEM cells = test system: SEM cells
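Also: ALL cell lines in 384-well plates, five doses spanning 10,000-fold, each plate scaled between vehicle and 100 µmol/L benzalkonium chloride controls, sDSS an adapted area-under-curve metric.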

Nc1nc(N)c2nc(-c3cccc(O)c3)c(-c3cccc(O)c3)nc2n1 [TG100-115] (top concentration 10000 nM)
selective drug sensitivity score 697: 0.7 | selective drug sensitivity score (ALL-SIL): 0.7 | selective drug sensitivity score (CCRF-CEM): 0.4 | selective drug sensitivity score (CCRF-HSB2): 3.9 | selective drug sensitivity score (COG-LL-319h): 0.6 | selective drug sensitivity score (COG-LL-355h): 3.7 | selective drug sensitivity score (JURKAT): -0.3 | selective drug sensitivity score (KARPAS-45): 0.8 | selective drug sensitivity score (KASUMI-2): -0.4 | selective drug sensitivity score (KOPN-8): 2.7 | selective drug sensitivity score (MHH-CALL-4): -0.4 | selective drug sensitivity score (MN-60): -0.4 | selective drug sensitivity score (MOLT-14): -0.4 | selective drug sensitivity score (NALL-1): 4.6 | selective drug sensitivity score (NALM-6): -0.4 | selective drug sensitivity score (P12-ICHIKAWA): -0.3 | selective drug sensitivity score (PF-382): -0.2 | selective drug sensitivity score (RCH-ACV): 5.6 | selective drug sensitivity score (REH): 5.1 | selective drug sensitivity score (SEM cells): 0.7

CC/C(=C(\c1ccccc1)c1ccc(OCCN(C)C)cc1)c1ccccc1 [Tamoxifen] (top concentration 10000 nM)
selective drug sensitivity score 697: 1.62 | selective drug sensitivity score (ALL-SIL): 3.12 | selective drug sensitivity score (CCRF-CEM): 0.82 | selective drug sensitivity score (CCRF-HSB2): 0.92 | selective drug sensitivity score (COG-LL-319h): 5.42 | selective drug sensitivity score (COG-LL-355h): 1.82 | selective drug sensitivity score (JURKAT): -1.48 | selective drug sensitivity score (KARPAS-45): 1.92 | selective drug sensitivity score (KASUMI-2): 5.72 | selective drug sensitivity score (KOPN-8): 7.92 | selective drug sensitivity score (MHH-CALL-4): 0.52 | selective drug sensitivity score (MN-60): -1.58 | selective drug sensitivity score (MOLT-14): 0.62 | selective drug sensitivity score (NALL-1): 3.82 | selective drug sensitivity score (NALM-6): 0.42 | selective drug sensitivity score (P12-ICHIKAWA): 0.32 | selective drug sensitivity score (PF-382): 1.72 | selective drug sensitivity score (RCH-ACV): 4.42 | selective drug sensitivity score (REH): 1.02 | selective drug sensitivity score (SEM cells): -1.28

COc1cc2c(N3CCN(C(=O)Nc4ccc(OC(C)C)cc4)CC3)ncnc2cc1OCCCN1CCCCC1 [Tandutinib] (top concentration 1000 nM)
selective drug sensitivity score 697: 0 | selective drug sensitivity score (ALL-SIL): 0 | selective drug sensitivity score (CCRF-CEM): 0 | selective drug sensitivity score (CCRF-HSB2): 0 | selective drug sensitivity score (COG-LL-319h): 0 | selective drug sensitivity score (COG-LL-355h): 0 | selective drug sensitivity score (JURKAT): 0 | selective drug sensitivity score (KARPAS-45): 0 | selective drug sensitivity score (KASUMI-2): 0 | selective drug sensitivity score (KOPN-8): 0 | selective drug sensitivity score (MHH-CALL-4): 0 | selective drug sensitivity score (MN-60): 0 | selective drug sensitivity score (MOLT-14): 0 | selective drug sensitivity score (NALL-1): 0 | selective drug sensitivity score (NALM-6): 0 | selective drug sensitivity score (P12-ICHIKAWA): 0 | selective drug sensitivity score (PF-382): 0 | selective drug sensitivity score (RCH-ACV): 0 | selective drug sensitivity score (REH): 0 | selective drug sensitivity score (SEM cells): 4.2

Cn1nnc2c(C(N)=O)ncn2c1=O [Temozolomide] (top concentration 100000 nM)
selective drug sensitivity score 697: 3.76 | selective drug sensitivity score (ALL-SIL): 4.66 | selective drug sensitivity score (CCRF-CEM): 7.16 | selective drug sensitivity score (CCRF-HSB2): 2.06 | selective drug sensitivity score (COG-LL-319h): -0.04 | selective drug sensitivity score (COG-LL-355h): -0.04 | selective drug sensitivity score (JURKAT): 2.36 | selective drug sensitivity score (KARPAS-45): 5.76 | selective drug sensitivity score (KASUMI-2): -0.04 | selective drug sensitivity score (KOPN-8): -0.04 | selective drug sensitivity score (MHH-CALL-4): -0.04 | selective drug sensitivity score (MN-60): -0.04 | selective drug sensitivity score (MOLT-14): 3.36 | selective drug sensitivity score (NALL-1): -0.04 | selective drug sensitivity score (NALM-6): 2.26 | selective drug sensitivity score (P12-ICHIKAWA): 4.96 | selective drug sensitivity score (PF-382): 3.16 | selective drug sensitivity score (RCH-ACV): 6.66 | selective drug sensitivity score (REH): 6.66 | selective drug sensitivity score (SEM cells): 6.46

CN1CCC(COc2cnc(-c3cccc(Cn4nc(-c5cccc(C#N)c5)ccc4=O)c3)nc2)CC1 [Tepotinib] (top concentration 1000 nM)
selective drug sensitivity score 697: -0.08 | selective drug sensitivity score (ALL-SIL): -0.08 | selective drug sensitivity score (CCRF-CEM): -0.08 | selective drug sensitivity score (CCRF-HSB2): 0.02 | selective drug sensitivity score (COG-LL-319h): 2.22 | selective drug sensitivity score (COG-LL-355h): -0.08 | selective drug sensitivity score (JURKAT): -0.08 | selective drug sensitivity score (KARPAS-45): -0.08 | selective drug sensitivity score (KASUMI-2): 2.02 | selective drug sensitivity score (KOPN-8): -0.08 | selective drug sensitivity score (MHH-CALL-4): -0.08 | selective drug sensitivity score (MN-60): -0.08 | selective drug sensitivity score (MOLT-14): -0.08 | selective drug sensitivity score (NALL-1): -0.08 | selective drug sensitivity score (NALM-6): -0.08 | selective drug sensitivity score (P12-ICHIKAWA): -0.08 | selective drug sensitivity score (PF-382): -0.08 | selective drug sensitivity score (RCH-ACV): 0.42 | selective drug sensitivity score (REH): -0.08 | selective drug sensitivity score (SEM cells): 0.22

NC(=S)N/N=C/c1ncccc1N [Triapine] (top concentration 10000 nM)
selective drug sensitivity score 697: 5.88 | selective drug sensitivity score (ALL-SIL): 6.78 | selective drug sensitivity score (CCRF-CEM): 2.68 | selective drug sensitivity score (CCRF-HSB2): 8.48 | selective drug sensitivity score (COG-LL-319h): 10.6 | selective drug sensitivity score (COG-LL-355h): 1.08 | selective drug sensitivity score (JURKAT): 2.28 | selective drug sensitivity score (KARPAS-45): -0.12 | selective drug sensitivity score (KASUMI-2): 2.38 | selective drug sensitivity score (KOPN-8): 1.78 | selective drug sensitivity score (MHH-CALL-4): 2.18 | selective drug sensitivity score (MN-60): 1.48 | selective drug sensitivity score (MOLT-14): 2.08 | selective drug sensitivity score (NALL-1): 3.48 | selective drug sensitivity score (NALM-6): 4.48 | selective drug sensitivity score (P12-ICHIKAWA): 5.18 | selective drug sensitivity score (PF-382): 1.28 | selective drug sensitivity score (RCH-ACV): 7.38 | selective drug sensitivity score (REH): 3.88 | selective drug sensitivity score (SEM cells): 2.18

NC(=O)c1cccc(-c2cccc(OC(=O)NC3CCCCC3)c2)c1 [URB597] (top concentration 1000 nM)
selective drug sensitivity score 697: -0.36 | selective drug sensitivity score (ALL-SIL): -0.46 | selective drug sensitivity score (CCRF-CEM): -0.46 | selective drug sensitivity score (CCRF-HSB2): -0.46 | selective drug sensitivity score (COG-LL-319h): 5.14 | selective drug sensitivity score (COG-LL-355h): -0.06 | selective drug sensitivity score (JURKAT): -0.46 | selective drug sensitivity score (KARPAS-45): -0.46 | selective drug sensitivity score (KASUMI-2): -0.46 | selective drug sensitivity score (KOPN-8): -0.36 | selective drug sensitivity score (MHH-CALL-4): -0.46 | selective drug sensitivity score (MN-60): -0.46 | selective drug sensitivity score (MOLT-14): -0.46 | selective drug sensitivity score (NALL-1): -0.46 | selective drug sensitivity score (NALM-6): 2.44 | selective drug sensitivity score (P12-ICHIKAWA): -0.46 | selective drug sensitivity score (PF-382): -0.46 | selective drug sensitivity score (RCH-ACV): -0.46 | selective drug sensitivity score (REH): -0.46 | selective drug sensitivity score (SEM cells): -0.46

COc1cc2/c(=N/c3ccc(Br)cc3F)nc[nH]c2cc1OCC1CCN(C)CC1 [Vandetanib] (top concentration 1000 nM)
selective drug sensitivity score 697: 0.18 | selective drug sensitivity score (ALL-SIL): 2.68 | selective drug sensitivity score (CCRF-CEM): -0.22 | selective drug sensitivity score (CCRF-HSB2): 11.6 | selective drug sensitivity score (COG-LL-319h): -0.22 | selective drug sensitivity score (COG-LL-355h): -0.22 | selective drug sensitivity score (JURKAT): -0.22 | selective drug sensitivity score (KARPAS-45): 0.68 | selective drug sensitivity score (KASUMI-2): -0.22 | selective drug sensitivity score (KOPN-8): -0.22 | selective drug sensitivity score (MHH-CALL-4): -0.22 | selective drug sensitivity score (MN-60): -0.22 | selective drug sensitivity score (MOLT-14): 0.48 | selective drug sensitivity score (NALL-1): 2.28 | selective drug sensitivity score (NALM-6): -0.22 | selective drug sensitivity score (P12-ICHIKAWA): -0.22 | selective drug sensitivity score (PF-382): 0.48 | selective drug sensitivity score (RCH-ACV): -0.22 | selective drug sensitivity score (REH): -0.22 | selective drug sensitivity score (SEM cells): -0.12

COc1cccc(-c2ccc(NC(=O)C3=C(C(=O)O)CCC3)c(F)c2)c1 [Vidofludimus] (top concentration 10000 nM)
selective drug sensitivity score 697: 6 | selective drug sensitivity score (ALL-SIL): 3.2 | selective drug sensitivity score (CCRF-CEM): 3.1 | selective drug sensitivity score (CCRF-HSB2): 4 | selective drug sensitivity score (COG-LL-319h): 6.9 | selective drug sensitivity score (COG-LL-355h): 0 | selective drug sensitivity score (JURKAT): 8.2 | selective drug sensitivity score (KARPAS-45): 3.9 | selective drug sensitivity score (KASUMI-2): 6.2 | selective drug sensitivity score (KOPN-8): 5.5 | selective drug sensitivity score (MHH-CALL-4): 2.8 | selective drug sensitivity score (MN-60): 12.3 | selective drug sensitivity score (MOLT-14): 3.5 | selective drug sensitivity score (NALL-1): 1.9 | selective drug sensitivity score (NALM-6): 3.4 | selective drug sensitivity score (P12-ICHIKAWA): 6.5 | selective drug sensitivity score (PF-382): 4.8 | selective drug sensitivity score (RCH-ACV): 8.8 | selective drug sensitivity score (REH): 8.9 | selective drug sensitivity score (SEM cells): 5.6

CC[C@]12C=CCN3CC[C@@]4(c5cc([C@@]6(C(=O)OC)C[C@@H]7C[C@@H](C(C)(F)F)CN(Cc8c6[nH]c6ccccc86)C7)c(OC)cc5N(C)[C@H]4[C@@](O)(C(=O)OC)[C@@H]1OC(C)=O)[C@@H]32 [Vinflunine] (top concentration 1000 nM)
selective drug sensitivity score 697: 4.68 | selective drug sensitivity score (ALL-SIL): 10.3 | selective drug sensitivity score (CCRF-CEM): 3.98 | selective drug sensitivity score (CCRF-HSB2): 4.48 | selective drug sensitivity score (COG-LL-319h): 2.98 | selective drug sensitivity score (COG-LL-355h): 2.68 | selective drug sensitivity score (JURKAT): 4.48 | selective drug sensitivity score (KARPAS-45): 4.48 | selective drug sensitivity score (KASUMI-2): 5.68 | selective drug sensitivity score (KOPN-8): 7.08 | selective drug sensitivity score (MHH-CALL-4): 0.58 | selective drug sensitivity score (MN-60): 0.58 | selective drug sensitivity score (MOLT-14): 3.78 | selective drug sensitivity score (NALL-1): 2.98 | selective drug sensitivity score (NALM-6): 5.18 | selective drug sensitivity score (P12-ICHIKAWA): 3.98 | selective drug sensitivity score (PF-382): 2.68 | selective drug sensitivity score (RCH-ACV): 3.98 | selective drug sensitivity score (REH): 4.18 | selective drug sensitivity score (SEM cells): 6.28
